Reference: ChEMBL document CHEMBL1201862, “PubChem BioAssay data set” (2004)
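The compound was tested at five concentrations on cells cultured in 96-well plates, with a 48-hour exposure period. At the GI50, growth is halved.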 Active and inactive are the calls of the source. No stated cut-off is given here; in the data, active = GI50 up to about 1.1 µM and inactive = higher.

Key:
BT-549 = assay: growth of human tumour cells (NCI), 48 h
T47D = assay: growth of human tumour cells (NCI), 48 h

SMILES	GI50 (BT-549)	GI50 (T47D)
S=c1nc(Nc2ccc(Cl)cc2)c2c3c(sc2[nH]1)CCCC3	> 100 µM (inactive)	
O=S(=O)(O)c1cc(Nc2ccnc3ccccc23)c2c(S(=O)(=O)O)cc(S(=O)(=O)O)cc2c1	> 100 µM (inactive)	> 100 µM (inactive)
Cc1ccc(C2=Nn3c(nc4sc5c(c4c3=O)CCCC5)SC2)cc1	> 100 µM (inactive)	> 100 µM (inactive)
CCCCCc1c(Cl)nc(Cl)nc1Cl		19.4 µM (inactive)
c1ccc(/N=C(\N2CCCC2)N(CCN2CCCC2)c2ccccc2)cc1	15.6 µM (inactive)	28.8 µM (inactive)
O=C1C2=Nc3ccccc3C(O)N2c2ccccc21 (stereo not given)	28.4 µM (inactive)	37.6 µM (inactive)
O=S1(=O)c2cnccc2N=C(NCc2cccc3ccccc23)N1c1ccccc1	> 100 µM (inactive)	54.7 µM (inactive)
CCOC(=O)C(C(=O)OCC)C(NC(=O)Nc1cc(C(F)(F)F)ccc1OC)(C(F)(F)F)C(F)(F)F		30.4 µM (inactive)
O=C1Oc2ccccc2C(=O)/C1=C/N1C(=O)N/C(=C\c2ccccc2O)C1=O	45.4 µM (inactive)	34.2 µM (inactive)
COC(=O)[C@H]1NC(=O)CCSSC1(C)C	> 100 µM (inactive)	> 100 µM (inactive)
N=C(N)SCc1cccc(-c2nc3ccccc3c(=O)o2)c1	> 100 µM (inactive)	> 100 µM (inactive)
CCOC(=O)C12C(=O)CCN1CCc1ccccc1C2C (stereo not given)	> 100 µM (inactive)	> 100 µM (inactive)
N#CC(C#N)[C@@H]1CCC=C(Sc2ccccc2)[C@H]1Sc1ccccc1	3.23 µM (inactive)	1.45 µM (inactive)
COC(=O)[C@H](Cc1ccccc1)NC(=O)c1ccc(CNC(=O)/C=C/c2ccc(-c3ccccc3)cc2)cc1	24.9 µM (inactive)	> 100 µM (inactive)
CC(=O)O[C@@H]1C[C@]2(C(=O)c3ccccc3)C(=O)C(=O)S[C@]12c1ccccc1	44.1 µM (inactive)	28.3 µM (inactive)
COc1cc(C2SC(=N)Nc3c2c(C)nn3C(=O)Cc2ccccc2)ccc1O (stereo not given)	> 100 µM (inactive)	> 100 µM (inactive)
O=C(Nc1ccccc1)c1cc2ccccc2c(/N=N/c2ccc([N+](=O)[O-])cc2)c1O	44.3 µM (inactive)	> 100 µM (inactive)

SMILES	GI50 (BT-549)	GI50 (T47D)
Clc1ccc(CN2CCCN(Cc3ccc(Cl)cc3)C2c2cc3ccccc3c3ccccc23)cc1	38.3 µM (inactive)	32.4 µM (inactive)
Cc1nc(NC(C)(CO)CO)nc(N/N=C/c2ccc(Cl)cc2)c1C(=O)Nc1ccc(Cl)cc1	> 100 µM (inactive)	> 100 µM (inactive)
Cc1cccc(C)c1NC(=O)/C=C/c1ccccc1	> 100 µM (inactive)	> 100 µM (inactive)
Cc1c2n(c3ccccc13)S(=O)(=O)c1ccccc1-2	39.8 µM (inactive)	
C=CCC(SC)C1=C(C)C(=O)c2ccccc21 (stereo not given)	> 10 µM (inactive)	> 10 µM (inactive)
Cc1nc2sc3ccccc3n2c(=O)c1/N=N/c1ccc(Br)cc1	> 100 µM (inactive)	90.8 µM (inactive)
COc1ccccc1N1C(=O)CSC1c1c[nH]c2ccccc12 (stereo not given)	> 100 µM (inactive)	> 100 µM (inactive)
CC(C)CC(NP(=O)(O)OC1OC(C)C(O)C(O)C1O)C(=O)NC(Cc1c[nH]c2ccccc12)C(=O)O (stereo not given)	> 100 µM (inactive)	> 100 µM (inactive)
CC1=NN(C(=O)CSc2nnc(SCC(=O)N3N=C(C)CC3(O)c3ccccc3)s2)C(O)(c2ccccc2)C1 (stereo not given)	15.5 µM (inactive)	
CCN(CC)P1(=S)Oc2ccc3ccccc3c2-c2c(ccc3ccccc23)O1	> 100 µM (inactive)	22.5 µM (inactive)
CCNCCNC(=O)c1ccc(I)cc1	> 100 µM (inactive)	
Nc1ncnc2c1nc(O)n2-c1ccccc1	> 100 µM (inactive)	
O=c1c2ccccc2nc(N/N=C/c2ccccc2O)n1-c1ccccc1	41.5 µM (inactive)	
O=C(C(=O)c1cc(-c2ccccc2)nc2ccc3ccccc3c12)c1ccccc1	65.8 µM (inactive)	
CCOC(=O)C(NC(=O)CC)(Nc1ccc(S(=O)(=O)Nc2ncccn2)cc1)C(F)(F)F (stereo not given)		> 100 µM (inactive)
COc1ccc(OC)c(N(CN2C(=O)CCC2C(=O)O)C(C)=O)c1 (stereo not given)		> 100 µM (inactive)
